Experimental findings from patent US20230271938A1, “BENZIMIDAZOLES FOR USE IN THE TREATMENT OF CANCER AND INFLAMMATORY DISEASES” (Capella Therapeutics, Inc., priority 2015, published 2023) are described below.

The structures appear in SMILES notation.

Common to all, as to settings: 1% DMSO
The target of test [1] is BTK (Homo sapiens, UniProt Q06187). Put plainly: Inhibition of BTK kinase. Type of test: biochemical. From the text: (§1) The Z′-LYTE® biochemical assay is a fluorescence-based, coupled-enzyme assay based on the differential sensitivity of phosphorylated and non-phosphorylated peptides to proteolytic cleavage. A peptide substrate for a kinase is labeled with two fluorophores, one at each end, to form a FRET pair.
(§2) In the primary reaction, the kinase transfers the gamma-phosphate of ATP to a single tyrosine, serine, or threonine residue in the synthetic FRET-peptide substrate. In the secondary reaction, a site-specific protease recognizes and cleaves non-phosphorylated FRET-peptides. Cleavage disrupts FRET between the donor and acceptor fluorophores on the FRET-peptide, whereas uncleaved, phosphorylated FRET-peptides maintain FRET. An inhibitory activity of a compound is thus determined from its effect on the cleavage of the synthetic FRET-peptide substrate.
(§3) Inhibition of BMX, BTK, ITK, and TXK kinases by a test compound is determined in 50 mM HEPES, pH 7.5, 0.01% BRIJ-35, 10 mM MgCl2, and 1 mM EGTA in the presence of 1% DMSO by volume.
(§4) Inhibition of BMX, BTK, PIK3C-D, ITK, TEC, and TXK kinases by compound A2 was measured using one of the assays described in Examples 2A and 3A.

In test [2] the target is T1, ITK (Homo sapiens, UniProt Q08881).
T1 sequence (Q08881 1-620): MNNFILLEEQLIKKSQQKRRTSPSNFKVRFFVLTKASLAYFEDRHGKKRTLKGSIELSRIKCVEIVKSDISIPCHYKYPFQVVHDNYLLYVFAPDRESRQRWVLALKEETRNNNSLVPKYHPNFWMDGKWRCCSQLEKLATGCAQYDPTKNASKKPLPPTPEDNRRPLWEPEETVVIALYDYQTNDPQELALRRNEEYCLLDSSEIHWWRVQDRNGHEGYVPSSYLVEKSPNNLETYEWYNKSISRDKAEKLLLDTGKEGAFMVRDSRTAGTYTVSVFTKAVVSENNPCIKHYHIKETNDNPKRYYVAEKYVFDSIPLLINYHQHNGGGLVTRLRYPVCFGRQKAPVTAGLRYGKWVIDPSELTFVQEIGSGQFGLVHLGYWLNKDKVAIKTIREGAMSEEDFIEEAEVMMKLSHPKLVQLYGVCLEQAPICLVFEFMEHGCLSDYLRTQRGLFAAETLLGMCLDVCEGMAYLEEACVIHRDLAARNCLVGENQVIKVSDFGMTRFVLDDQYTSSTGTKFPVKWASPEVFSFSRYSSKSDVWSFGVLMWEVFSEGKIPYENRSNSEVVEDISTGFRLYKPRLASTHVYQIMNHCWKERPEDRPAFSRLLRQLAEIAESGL
Put plainly: Inhibition of ITK kinase. Type of test: biochemical.
From the text: as §1
In the primary reaction, the kinase transfers the gamma-phosphate of ATP to a single tyrosine, serine, or threonine residue in the synthetic FRET-peptide substrate. In the secondary reaction, a site-specific protease recognizes and cleaves non-phosphorylated FRET-peptides. […] An inhibitory activity of a compound is thus determined from its effect on the cleavage of the synthetic FRET-peptide substrate.
as §3
Binding of an ALEXA FLUOR® conjugate or “tracer” to a kinase is detected by addition of a Eu-labeled anti-tag antibody. […] An inhibitory activity of a compound is thus determined from the extent of the FRET signal loss. Inhibition of ITK and TEC kinases by a test compound is determined in the presence of 1% DMSO.
as §4

For test [3], the target named is T2, TEC (Homo sapiens, UniProt P42680).
T2 sequence (P42680 1-631): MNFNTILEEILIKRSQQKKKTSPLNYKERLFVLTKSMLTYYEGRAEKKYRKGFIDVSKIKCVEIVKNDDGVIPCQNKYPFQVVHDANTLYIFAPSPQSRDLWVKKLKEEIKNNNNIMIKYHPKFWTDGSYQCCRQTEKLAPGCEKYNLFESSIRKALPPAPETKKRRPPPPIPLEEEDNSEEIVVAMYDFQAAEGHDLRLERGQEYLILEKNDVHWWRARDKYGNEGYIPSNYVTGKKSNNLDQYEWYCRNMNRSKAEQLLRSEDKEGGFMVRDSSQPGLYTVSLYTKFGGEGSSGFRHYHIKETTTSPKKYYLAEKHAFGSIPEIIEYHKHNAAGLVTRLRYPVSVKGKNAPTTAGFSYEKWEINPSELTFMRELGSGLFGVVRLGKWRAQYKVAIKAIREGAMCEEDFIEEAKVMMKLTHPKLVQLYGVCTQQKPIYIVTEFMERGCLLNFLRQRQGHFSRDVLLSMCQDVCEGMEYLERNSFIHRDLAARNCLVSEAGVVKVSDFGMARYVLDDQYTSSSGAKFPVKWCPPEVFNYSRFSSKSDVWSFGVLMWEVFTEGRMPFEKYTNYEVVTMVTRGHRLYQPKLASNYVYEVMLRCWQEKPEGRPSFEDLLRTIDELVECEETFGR
Put plainly: Inhibition of TEC kinase. The format is binding. The procedure:
Binding of an ALEXA FLUOR® conjugate or “tracer” to a kinase is detected by addition of a Eu-labeled anti-tag antibody. Binding of the tracer and antibody to a kinase results in a high degree of FRET, whereas displacement of the tracer with a kinase inhibitor results in a loss of FRET. An inhibitory activity of a compound is thus determined from the extent of the FRET signal loss. Inhibition of ITK and TEC kinases by a test compound is determined in the presence of 1% DMSO.
as §4

The target in test [4] is T3, TXK (Homo sapiens, UniProt P42681).
T3 sequence (P42681 1-527): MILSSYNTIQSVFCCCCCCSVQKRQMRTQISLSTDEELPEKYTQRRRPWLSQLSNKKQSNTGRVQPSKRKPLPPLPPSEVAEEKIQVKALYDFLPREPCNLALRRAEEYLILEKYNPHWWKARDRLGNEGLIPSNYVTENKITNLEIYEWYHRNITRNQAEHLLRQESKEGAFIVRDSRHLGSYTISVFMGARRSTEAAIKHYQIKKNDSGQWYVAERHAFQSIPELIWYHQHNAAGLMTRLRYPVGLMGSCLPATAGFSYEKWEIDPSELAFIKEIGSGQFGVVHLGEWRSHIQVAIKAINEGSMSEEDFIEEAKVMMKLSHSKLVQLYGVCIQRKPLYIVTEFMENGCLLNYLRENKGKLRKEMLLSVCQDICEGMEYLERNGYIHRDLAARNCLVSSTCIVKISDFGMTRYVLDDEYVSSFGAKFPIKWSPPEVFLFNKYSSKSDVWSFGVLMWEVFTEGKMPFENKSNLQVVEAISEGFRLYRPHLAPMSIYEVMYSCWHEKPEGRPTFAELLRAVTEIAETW
Put plainly: Inhibition of TXK kinase. The format is biochemical.
From the text: as §1, §2, §3, §4

Sequence of BTK (Q06187 whole entry): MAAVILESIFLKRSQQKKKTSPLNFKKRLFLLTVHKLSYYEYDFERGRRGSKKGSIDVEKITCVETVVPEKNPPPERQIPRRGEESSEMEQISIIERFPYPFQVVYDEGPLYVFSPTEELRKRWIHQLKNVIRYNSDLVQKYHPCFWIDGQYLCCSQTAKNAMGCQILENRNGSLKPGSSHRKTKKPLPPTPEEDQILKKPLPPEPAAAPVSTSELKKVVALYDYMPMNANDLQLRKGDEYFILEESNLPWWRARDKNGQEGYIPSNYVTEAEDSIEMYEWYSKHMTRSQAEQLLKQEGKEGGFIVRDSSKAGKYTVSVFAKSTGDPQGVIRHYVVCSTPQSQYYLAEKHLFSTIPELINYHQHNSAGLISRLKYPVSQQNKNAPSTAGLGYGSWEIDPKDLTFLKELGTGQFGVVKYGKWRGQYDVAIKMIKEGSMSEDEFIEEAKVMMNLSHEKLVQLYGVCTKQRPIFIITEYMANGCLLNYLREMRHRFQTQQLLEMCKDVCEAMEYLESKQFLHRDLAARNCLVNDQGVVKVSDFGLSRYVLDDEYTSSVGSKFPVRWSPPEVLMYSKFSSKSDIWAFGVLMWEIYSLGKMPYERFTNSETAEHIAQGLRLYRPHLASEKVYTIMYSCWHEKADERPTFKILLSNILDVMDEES

As a reminder, the IC50 is the concentration that gives 50% inhibition. A lower IC50 goes with greater potency. On to `C=CC(=O)N1CCCC[C@@H](n2c(NC(=O)c3ccnc(C)c3)nc3cccc(OC4CCN(C(C)=O)CC4)c32)C1` [Compound A2, (R)-N-(7-((1-acetylpiperidin-4-yl)oxy)-1-(1-acryloylazepan-3-yl)-1H-benzo[d]imidazol-2-yl)-2-methylisonicotinamide], for which the half-inhibitory concentration (IC50) in test [1], in test [2], in test [3] and in test [4] was ≤ 10 nM each time. Also, the Inhibition entry in test [1], in test [2], in test [3] and in test [4] was “A (A represents a value no greater than 10 nM or no less than 90% inhibition)” throughout.
